In patent publication US20100160295A1, “TREATMENT OF RESTLESS LEG SYNDROME AND SLEEP DISORDERS” (SYNOSIA THERAPEUTICS, priority 2008, published 2010):

What was measured:
Subjects with RLS = test: Medical Outcomes Study (MOS) Sleep Scale, placebo-controlled study in RLS subjects; type: in vivo, human; conditions: change from Baseline to EoT; PPS n = 13
Protocol: (§1) The study multi-centre, randomized, double-blind, parallel-groups, placebo-controlled study with 2 treatment arms, oral HPPD inhibitor (2-(2-nitro-4-trifluoromethylbenzoyl)-1,3-cyclohexanedione) and placebo. Subjects were randomized to either treatment with an HPPD inhibitor or placebo in a 2:1 ratio. The subjects were dosed with 4 mg on day 1, and 2 mg/day on days 2-14. The total duration of treatment with study drug for each subject was 14 consecutive days ending at the day of the final sleep lab assessment (Day 14), with a follow-up examination 29 days after Baseline.
(§2) Efficacy parameters were changes between Baseline and end of treatment in objective measures of Periodic Limb Movements (PLM) and sleep efficiency and in investigator evaluations of severity of RLS symptoms as well as in subject's report on severity of RLS symptoms, sleep disturbances and depressive feelings. Parameters measured included: • Periodic Limb Movement (PLM) Index, defined as the number of PLM events occurring during time-in-bed (PLMI/h TIB) • Periodic Limb Movements during Sleep Index, defined as the number of PLMs per hour of total sleep time (PLMSI/h TST) • PLM arousal index, defined as the number of PLM with arousals per hour of total sleep time (PLMSAI/h TST) • Periodic Limb Movements during wakefulness index, defined as the number of PLMs per hour occurring during wakefulness within time-in-bed (PLMWI/h TIB) • Sleep Efficiency (SE) expressed as the percentage total sleep time (TST) of total time in bed (TIB) • Total Sleep Time (TST) • Total number of arousals per TST • Sleep latency • Restless Legs Scale—6 items (RLS-6) (Kohnen et al, 2004) • IRLS total score change from start of treatment to end • Time to requiring rescue medication (defined as time to dropout due to the need of rescue medication for intolerable RLS symptoms) • Physicians' Global Impression, rated by the Clinical Global Impressions Scale (CGI): severity, change and treatment effect • CGI responders defined as the proportion of subjects who improved “much” or “very much” on CGI item “change”. • Patients' Global Impression (PGI) scale Item 1 (efficacy) • Medical Outcomes Study (MOS) Sleep Scale • Beck Depression Inventory (BDI) • In addition, a patient diary was to be completed between days 8 and 15 • HPPD inhibitor plasma concentrations at Baseline, end of treatment and follow-up • Tyrosine plasma concentration at Baseline, end of treatment and follow-up.
Subjects with RLS received either placebo (7 subjects) or an HPPD inhibitor (13 subjects) given as 4 mg on day 1, then 2 mg per day for days 2-14 of the trial. Various parameters relevant to RLS were monitored during the course of treatment, in particular the quality of their sleep patterns using a standard assessment scale (Medical Outcomes Study (MOS) Sleep Scale). Individuals were asked to complete a standard evaluation of their ‘normal’ sleep experience at the start of the trial (Baseline) and again at the end of treatment (EoT), with the various parameters scored according to the attached document.
The MOS Sleep Scale is a comprehensive subject completed sleep questionnaire consisting of 12 items (Hays and Stewart, 1992; Hays et al., 2005). Each item measures a unique aspect or characteristic of sleep. Overall, the MOS Sleep Scale measures the following:
All items, except for item 2, were transformed in a ‘0-100’ scale.
For the analysis of the MOS sleep scale, the following subscales were determined as means of the involved items (in part, after reversing the ratings in the ‘0-100’ scale, denoted by (R) in the item sequence):
Subjects self-reported the length of time it took for them to fall asleep and the average number of hours of sleep each night. Scores for all other items range from 1 (all of the time) to 6 (none of the time).
The MOS Sleep Scale was completed at Baseline (Visit 2) and final examination (Visit 3).

[1] = tested on: moderate to severe idiopathic RLS subjects; test: IRLS scale, placebo-controlled study in RLS subjects; type: in vivo, human
Protocol: as §1
(§3) The objective of this exploratory study was to show proof-of-concept of therapy with an exemplary HPPD inhibitor in moderate to severe idiopathic RLS subjects.
as §2

[2] = tested on: moderate to severe idiopathic RLS subjects; test: Restless Legs Scale - 6 items (RLS-6); type: in vivo, human
Protocol: as §1, §3
(§4) Efficacy parameters were changes between Baseline and end of treatment in objective measures of Periodic Limb Movements (PLM) and sleep efficiency and in investigator evaluations of severity of RLS symptoms as well as in subject's report on severity of RLS symptoms, sleep disturbances and depressive feelings. […]

[3] = tested on: moderate to severe idiopathic RLS subjects; test: Beck Depression Inventory (BDI); type: in vivo, human
Protocol: as §1, §3, §4

[4] = tested on: moderate to severe idiopathic RLS subjects; test: Clinical Global Impressions Scale (CGI): severity, change and treatment effect; type: in vivo, human
Protocol: as §1, §3, §2

[5] = tested on: moderate to severe idiopathic RLS subjects; test: Patients' Global Impression (PGI) scale Item 1 (efficacy); type: in vivo, human
Protocol: as §1, §3, §4

[6] = tested on: moderate to severe idiopathic RLS subjects; test: Patient diary of RLS symptoms; type: in vivo, human
Protocol: as §1, §3, §2

[7] = tested on: moderate to severe idiopathic RLS subjects; test: PSG measurements, Periodic Limb Movement (PLM) index; type: in vivo, human; conditions: log-transformed values on PSG measurements
Protocol: as §1, §3, §4

[8] = Plasma level of HPPD inhibitor and plasma tyrosine at steady state, 2 mg QD vs. 2 mg Q2D (FIG. 3); type: in vivo
Protocol: FIG. 3 is a graphical comparison of the mean plasma level of an exemplary HPPD inhibitor with plasma tyrosine at steady state following 2 mg QD vs. 2 mg Q2D dosing.
FIG. 3 provides an example of plasma tyrosine levels which are essentially identical and independent of whether the HPPD inhibitor is administered once a day or once every two days.

**Q.** What does the source list for O=C1CCCC(=O)C1C(=O)c1ccc(C(F)(F)F)cc1[N+](=O)[O-] [HPPD Inhibitor, 2-(2-nitro-4-trifluoromethylbenzoyl)-1,3-cyclohexanedione]?
**A.** MOS Sleep Disturbance Scale, change, Median (Subjects with RLS): −46.3; MOS Sleep Disturbance Scale, change, Range (Subjects with RLS): −68.8-11.3; MOS Sleep Problems Index I, change, M ± SD (Subjects with RLS): −23.8 ± 20.3; MOS Sleep Problems Index I, change, Median (Subjects with RLS): −20.0; MOS Sleep Problems Index I, change, Range (Subjects with RLS): −60.0-3.3; MOS Sleep Problems Index II, change, M ± SD (Subjects with RLS): −25.5 ± 19.9; MOS Sleep Problems Index II, change, Median (Subjects with RLS): −23.9; MOS Sleep Problems Index II, change, Range (Subjects with RLS): −61.7-−1.7; MOS Sleep Quantity, change, M ± SD (Subjects with RLS): 1.8 ± 1.1 h; MOS Sleep Quantity, change, Median (Subjects with RLS): 2.0 h; MOS Sleep Quantity, change, Range (Subjects with RLS): 0.0 to 3.0 h; MOS Snoring Scale, change, M ± SD (Subjects with RLS): −6.2 ± 15.0; MOS Snoring Scale, change, Median (Subjects with RLS): 0.0; MOS Snoring Scale, change, Range (Subjects with RLS): −40.0-20.0; MOS Somnolence Scale, change, M ± SD (Subjects with RLS): −10.3 ± 16.0; MOS Somnolence Scale, change, Median (Subjects with RLS): −13.3; MOS Somnolence Scale, change, Range (Subjects with RLS): −33.3-13.3; IRLS severity score: difference drug-placebo, LS mean ([1]; Baseline to EoT, M-ITT, 95%-CI: −9.75, 2.84, p=0.2636): −3.46; IRLS total score, difference vs placebo ([1]; Baseline to EoT, not seen for IRLS impact score): numerical differences between Baseline and EoT favouring; subjects reporting only mild or moderate RLS symptoms (IRLS scale), number ([1]; EoT, M-ITT, placebo 2): 9 subjects; subjects reporting only mild or moderate RLS symptoms (IRLS scale), percentage ([1]; EoT, M-ITT, placebo 28.6%): 64.3%; RLS-6, all subscales: median (mean) differences between Baseline and EoT vs placebo ([2]; Baseline to EoT): more benefit than those treated with placebo; RLS-6 RLS symptoms during the night: difference drug-placebo, LS mean ([2]; M-ITT, 95%-CI: −4.52, 0.97, p=0.1910 two-sided from ANCOVA): −1.77; RLS-6 RLS symptoms when falling asleep: difference drug-placebo, LS mean ([2]; M-ITT, 95%-CI: −5.24, −0.01, p=0.0494 two-sided from ANCOVA): −2.62; depressive symptoms, mean differences between Baseline and EoT vs placebo [3]: larger reduction of depressive symptoms; CGI severity item, improvement vs placebo ([4]; EoT): larger improvement; CGI severity: subjects not at all or only borderline ill, percentage ([4]; EoT, M-ITT): 21.4%; CGI severity: subjects not at all or only borderline ill, number ([4]; EoT, M-ITT, none on placebo): 3 subjects; CGI severity: subjects with moderate to severe illness, number ([4]; EoT, M-ITT, placebo 5): 7 subjects; CGI severity: subjects with moderate to severe illness, percentage ([4]; EoT, M-ITT, placebo 71.4%): 50.0%; CGI change of condition: subjects very much or much improved (responder analysis), number ([4]; M-ITT, placebo 2): 7 subjects; CGI change of condition: subjects very much or much improved (responder analysis), percentage ([4]; M-ITT, placebo 28.6%): 50.0%; CGI treatment effect rated as very good or moderate, number of subjects ([4]; placebo 3): 8 subjects; CGI treatment effect rated as very good or moderate, percentage of subjects ([4]; placebo 42.9%): 57.1%; PGI: subjects who assessed their therapy as efficacious, number ([5]; placebo 2): 7 subjects; PGI: subjects who assessed their therapy as efficacious, percentage ([5]; placebo 28.6%): 50.0%; patient diary, RLS symptoms during the day when active: difference drug-placebo, LS mean ([6]; M-ITT, 95%-CI: −2.52, −0.04, p=0.0437 two-sided from ANCOVA): −1.28; patient diary, RLS symptoms during the day: difference drug-placebo, LS mean ([6]; M-ITT, 95%-CI: −4.87, −0.27, p=0.0304 two-sided from ANCOVA): −2.57; patient diary, RLS symptoms when falling asleep: difference drug-placebo, LS mean ([6]; M-ITT, 95%-CI: −5.15, −0.13, p=0.0402 two-sided from ANCOVA): −2.64; patient diary, improvement of RLS symptoms during the night and during the day at rest, or during inactivity ([6]; vs placebo): Trends were found; PLM index values, improvement as compared to placebo [7]: slightly larger improvement; steady state plasma tyrosine levels, once a day vs once in two days ([8]; 2 mg once a day vs 2 mg once in 2 days): substantially similar; plasma levels of the HPPD inhibitor, once in two day regimen vs once a day ([8]; 2 mg once in 2 days vs 2 mg once a day, steady state): lower
